From publication PMC4120670 (Kidney International, 2014)

How the values were obtained:
OCT2 [1] = molecular target: T1, OCT2 (Homo sapiens, UniProt O15244); assay: Cobicistat uptake in MDCKII cells transfected with OCT2; format: cell-based; settings: cobicistat 1 μmol/l; vs nontransfected MDCKII cells; 5% bovine serum albumin
T1 sequence (O15244 1-555): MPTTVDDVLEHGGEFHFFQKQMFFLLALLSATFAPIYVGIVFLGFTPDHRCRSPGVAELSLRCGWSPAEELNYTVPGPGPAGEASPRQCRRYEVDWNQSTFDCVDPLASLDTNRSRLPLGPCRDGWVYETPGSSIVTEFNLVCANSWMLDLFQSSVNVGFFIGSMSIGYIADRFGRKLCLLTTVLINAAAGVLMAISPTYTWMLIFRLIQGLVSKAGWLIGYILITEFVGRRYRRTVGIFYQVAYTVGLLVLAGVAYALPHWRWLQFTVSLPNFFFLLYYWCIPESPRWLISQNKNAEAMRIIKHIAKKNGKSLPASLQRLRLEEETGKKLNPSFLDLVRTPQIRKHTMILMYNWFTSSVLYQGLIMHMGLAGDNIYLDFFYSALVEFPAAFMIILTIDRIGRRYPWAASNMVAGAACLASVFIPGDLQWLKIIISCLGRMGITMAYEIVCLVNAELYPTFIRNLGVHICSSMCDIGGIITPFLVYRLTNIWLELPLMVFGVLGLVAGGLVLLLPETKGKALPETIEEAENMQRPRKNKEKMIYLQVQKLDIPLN

OCT2 [2] = molecular target: T1, OCT2; assay: Inhibition of OCT2 transport of tetraethylammonium; format: cell-based
MATE1 [3] = molecular target: T2, MATE1 (Homo sapiens, UniProt Q96FL8); assay: Inhibition of MATE1-mediated creatinine transport; format: cell-based
T2 sequence (Q96FL8 1-570): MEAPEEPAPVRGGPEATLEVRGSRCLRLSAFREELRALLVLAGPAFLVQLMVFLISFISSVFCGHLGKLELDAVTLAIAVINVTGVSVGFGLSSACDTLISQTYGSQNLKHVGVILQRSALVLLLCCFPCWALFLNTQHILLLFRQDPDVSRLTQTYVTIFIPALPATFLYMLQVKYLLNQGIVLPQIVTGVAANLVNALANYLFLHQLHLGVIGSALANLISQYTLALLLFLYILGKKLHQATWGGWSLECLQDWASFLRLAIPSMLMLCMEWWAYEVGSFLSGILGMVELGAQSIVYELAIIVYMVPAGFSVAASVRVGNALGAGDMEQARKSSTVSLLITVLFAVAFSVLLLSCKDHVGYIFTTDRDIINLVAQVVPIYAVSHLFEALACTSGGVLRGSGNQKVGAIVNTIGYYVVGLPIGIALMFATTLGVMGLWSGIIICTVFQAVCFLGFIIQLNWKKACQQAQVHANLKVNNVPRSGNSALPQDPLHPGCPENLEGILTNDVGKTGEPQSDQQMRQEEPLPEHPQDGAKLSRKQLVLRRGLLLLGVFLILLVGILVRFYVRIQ

MATE2-K [4] = molecular target: MATE2-K (Homo sapiens, UniProt Q86VL8); assay: Inhibition of MATE2-K transport of tetraethylammonium; format: cell-based
Sequence of MATE2-K (Homo sapiens, UniProt Q86VL8) (Q86VL8 1-566 isoform Q86VL8-3): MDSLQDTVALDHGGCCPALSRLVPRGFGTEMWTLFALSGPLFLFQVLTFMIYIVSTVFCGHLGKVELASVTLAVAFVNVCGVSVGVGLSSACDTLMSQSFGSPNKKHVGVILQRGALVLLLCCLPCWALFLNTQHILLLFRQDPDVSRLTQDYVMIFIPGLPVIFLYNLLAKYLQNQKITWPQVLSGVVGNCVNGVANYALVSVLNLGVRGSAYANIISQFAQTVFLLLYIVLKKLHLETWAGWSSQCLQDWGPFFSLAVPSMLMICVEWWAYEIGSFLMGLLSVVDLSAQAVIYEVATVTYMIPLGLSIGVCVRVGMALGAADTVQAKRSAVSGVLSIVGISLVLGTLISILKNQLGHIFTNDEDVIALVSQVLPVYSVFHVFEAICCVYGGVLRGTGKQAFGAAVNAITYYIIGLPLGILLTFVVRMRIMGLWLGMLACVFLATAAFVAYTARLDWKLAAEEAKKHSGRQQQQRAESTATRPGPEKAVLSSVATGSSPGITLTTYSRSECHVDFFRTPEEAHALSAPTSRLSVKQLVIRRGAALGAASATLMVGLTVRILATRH

MATE1 [5] = molecular target: T2, MATE1; assay: Inhibition of MATE1 transport of tetraethylammonium; format: cell-based
OAT3 = molecular target: T3, OAT3 (Homo sapiens, UniProt Q8TCC7); settings: cobicistat 1 μmol/l; HEK293; diclofenac or probenecid 90 μmol/l
T3 sequence (Q8TCC7 1-542): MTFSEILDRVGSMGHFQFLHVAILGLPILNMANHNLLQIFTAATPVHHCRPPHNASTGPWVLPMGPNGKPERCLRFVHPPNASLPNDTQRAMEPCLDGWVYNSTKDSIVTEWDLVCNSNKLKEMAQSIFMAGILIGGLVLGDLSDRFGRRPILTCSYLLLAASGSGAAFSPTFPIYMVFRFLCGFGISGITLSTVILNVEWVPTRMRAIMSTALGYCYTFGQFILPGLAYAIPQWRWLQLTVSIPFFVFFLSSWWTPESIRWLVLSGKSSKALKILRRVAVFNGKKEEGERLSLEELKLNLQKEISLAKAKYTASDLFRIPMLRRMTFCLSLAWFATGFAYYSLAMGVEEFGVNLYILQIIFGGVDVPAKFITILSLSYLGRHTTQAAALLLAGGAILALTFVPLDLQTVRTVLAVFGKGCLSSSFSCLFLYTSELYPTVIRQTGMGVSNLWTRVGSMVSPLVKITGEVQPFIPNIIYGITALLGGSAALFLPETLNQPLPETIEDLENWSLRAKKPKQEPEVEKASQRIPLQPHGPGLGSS

[6] = test system: human primary proximal tubule cells; assay: Cobicistat uptake in fresh isolated primary proximal tubule cells; format: cell-based; settings: cobicistat 1 μmol/l; cimetidine 1500 μmol/l or probenecid 90 μmol/l
OCT3 = molecular target: T4, OCT3 (Homo sapiens, UniProt O75751); assay: Inhibition of OCT3 transport of 1-methyl-4-phenylpyridinium; format: cell-based; settings: for Concentration-dependent inhibition of OCT3-dependent transport: model substrate, curve could not be generated
T4 sequence (O75751 1-556): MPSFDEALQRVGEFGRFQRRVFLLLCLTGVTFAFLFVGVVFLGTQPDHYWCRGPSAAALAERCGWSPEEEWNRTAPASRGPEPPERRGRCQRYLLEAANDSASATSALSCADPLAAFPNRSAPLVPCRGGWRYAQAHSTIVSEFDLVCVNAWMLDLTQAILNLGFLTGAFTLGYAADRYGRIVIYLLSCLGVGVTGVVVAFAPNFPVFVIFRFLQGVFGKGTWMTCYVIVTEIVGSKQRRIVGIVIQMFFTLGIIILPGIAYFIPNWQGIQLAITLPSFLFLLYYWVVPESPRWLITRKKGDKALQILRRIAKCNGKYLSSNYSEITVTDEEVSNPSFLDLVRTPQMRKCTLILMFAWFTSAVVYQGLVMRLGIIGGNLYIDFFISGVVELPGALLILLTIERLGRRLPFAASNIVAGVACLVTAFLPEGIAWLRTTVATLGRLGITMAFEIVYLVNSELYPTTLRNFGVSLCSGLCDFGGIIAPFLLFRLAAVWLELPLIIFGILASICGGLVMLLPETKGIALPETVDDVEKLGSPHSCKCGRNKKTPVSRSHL

OAT2 = molecular target: T5, OAT2 (Homo sapiens, UniProt Q9Y694); assay: Inhibition of OAT2 transport of 3′,5′-cyclic GMP; format: cell-based
T5 sequence (Q9Y694 1-548): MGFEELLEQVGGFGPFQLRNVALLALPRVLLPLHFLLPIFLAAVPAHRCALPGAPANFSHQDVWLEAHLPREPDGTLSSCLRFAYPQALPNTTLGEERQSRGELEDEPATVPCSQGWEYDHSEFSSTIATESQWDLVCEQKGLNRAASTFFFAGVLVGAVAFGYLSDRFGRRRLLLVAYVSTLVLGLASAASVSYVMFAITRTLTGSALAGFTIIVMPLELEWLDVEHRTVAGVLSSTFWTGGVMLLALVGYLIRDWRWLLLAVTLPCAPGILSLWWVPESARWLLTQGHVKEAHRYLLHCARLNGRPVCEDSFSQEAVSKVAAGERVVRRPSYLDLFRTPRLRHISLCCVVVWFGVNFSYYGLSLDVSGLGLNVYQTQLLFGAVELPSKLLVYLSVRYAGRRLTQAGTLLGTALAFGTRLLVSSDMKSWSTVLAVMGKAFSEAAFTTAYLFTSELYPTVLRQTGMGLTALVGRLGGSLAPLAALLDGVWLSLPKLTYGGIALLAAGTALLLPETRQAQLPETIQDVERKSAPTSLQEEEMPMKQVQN

[7] = cited from earlier work
[8] = more modest effects, clinical; cited from earlier work
[9] = clinical plasma concentration; cited from earlier work
MATE2-K [10] = settings: read-out: Ki MATE2-K; cited from earlier work
[11] = most prominent effects, clinical; cited from earlier work
MATE1 [12] = settings: read-out: Ki MATE1; cited from earlier work
OCT2 [13] = molecular target: T1, OCT2; assay: Inhibition of OCT2-dependent metformin transport; format: cell-based

Row | Increase in cobicistat accumulation in cells transfected with OCT2 (OCT2 [1]) | IC50 (OCT2 [2]) | IC50 (MATE1 [3]) | IC50 (MATE2-K [4]) | IC50 (MATE1 [5]) | Inhibitor-sensitive accumulation in cells transfected with OAT3 (OAT3) | IC50 (OCT3) | IC50 (OAT2) | IC50 (OCT2 [13]) | Structure (SMILES) | Transporter-dependent uptake in primary proximal tubule cells [6] | Concentration-dependent inhibition of OCT3-dependent transport (OCT3) | Maximum plasma concentration ([7]; clinical) | Renal elimination ([7]; in humans) | Serum creatinine increases [8] | Bound to plasma proteins [9] | Ki (MATE2-K [10]) | Decreases in creatinine clearance [11] | Ki (MATE1 [12]) | Concentration-dependent inhibition of OAT2-dependent transport (OAT2; model substrate, curve could not be generated)
1 | 2.9 fold | 24 ± 4.6 µM | 0.99 µM | 33.5 ± 4.2 µM | 1.87 ± 0.22 µM | no inhibitor-sensitive accumulation | > 100 µM | > 100 µM |  | CC(C)c1nc(CN(C)C(=O)N[C@@H](CCN2CCOCC2)C(=O)N[C@H](CC[C@H](Cc2ccccc2)NC(=O)OCc2cncs2)Cc2ccccc2)cs1 [Cobicistat, cobicistat] | small but reproducible decreases in accumulation in the presence of the transport inhibitors cimetidine or probenecid | lack of concentration-dependent inhibition | 1.4 µmol/L | approximately 8% | ~0.1 mg/dL | over 90% |  |  |  | 
2 |  |  |  |  |  |  |  |  |  | CCc1nc(N)nc(N)c1-c1ccc(Cl)cc1 [Pyrimethamine, pyrimethamine] |  |  |  |  |  |  | 0.059 µM | 15–34 ml/min per 1.73 m^2 | 0.093 µM | 
3 |  | 0.066 ± 0.003 µM |  | > 100 µM | 4.67 ± 1.11 µM |  | > 100 µM | > 100 µM | 0.11 µM | C[C@@H]1CCO[C@H]2Cn3cc(C(=O)NCc4ccc(F)cc4F)c(=O)c(O)c3C(=O)N12 [Dolutegravir, dolutegravir] |  | lack of concentration-dependent inhibition |  |  | ~0.1 mg/dL |  |  |  |  | lack of concentration-dependent inhibition
